Source: patent publication US10494363B2, “Non-steroidal glucocorticoid receptor modulators for local drug delivery” (LEO PHARMA A/S, priority 2015, dated 2019)

Key:
[1] = target: T1, glucocorticoid receptor (GR), recombinant full-length receptor protein (Homo sapiens, UniProt P04150); assay: Glucocorticoid receptor binding assay (fluorescence polarization kit); conditions: 4 nM receptor, 2.5 nM Fluormone GS1 tracer, 2h room temperature, read-out: GR binding ABS IC50
T1 construct: 4 nM recombinant, full-length receptor protein was incubated with increasing concentrations of GR ligand; purchased Life Technologies A-15897
T1 sequence (P04150 1-777): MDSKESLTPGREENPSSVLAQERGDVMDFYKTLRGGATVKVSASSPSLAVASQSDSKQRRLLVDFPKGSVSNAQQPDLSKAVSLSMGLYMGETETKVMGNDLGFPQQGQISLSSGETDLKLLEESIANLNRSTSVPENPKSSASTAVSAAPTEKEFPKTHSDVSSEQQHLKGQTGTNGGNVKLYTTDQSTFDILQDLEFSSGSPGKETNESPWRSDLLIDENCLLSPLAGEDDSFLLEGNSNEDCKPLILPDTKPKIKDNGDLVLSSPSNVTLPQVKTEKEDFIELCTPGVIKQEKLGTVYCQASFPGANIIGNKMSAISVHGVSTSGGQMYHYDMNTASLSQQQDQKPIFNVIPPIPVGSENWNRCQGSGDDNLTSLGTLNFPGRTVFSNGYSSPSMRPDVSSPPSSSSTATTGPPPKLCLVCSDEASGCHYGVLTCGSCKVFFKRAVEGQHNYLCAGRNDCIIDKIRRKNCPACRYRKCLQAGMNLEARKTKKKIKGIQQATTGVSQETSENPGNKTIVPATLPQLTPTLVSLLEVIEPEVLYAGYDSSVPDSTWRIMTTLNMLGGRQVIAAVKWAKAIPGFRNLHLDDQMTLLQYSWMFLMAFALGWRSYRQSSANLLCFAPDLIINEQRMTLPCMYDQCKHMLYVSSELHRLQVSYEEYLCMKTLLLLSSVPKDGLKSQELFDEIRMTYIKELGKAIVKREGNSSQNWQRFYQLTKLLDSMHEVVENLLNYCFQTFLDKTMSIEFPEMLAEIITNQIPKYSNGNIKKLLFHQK
Method: Test compounds were diluted in DMSO over seven orders of magnitude, further diluted in assay buffer and distributed into 384-well plates. The sensitivity limit of this assay was 2-4 nM.
Data were processed by sigmoidal curve fitting.
Absolute (Abs) IC50 and Emax were determined from the curve fits.

[2] = system: TNF alpha release from human PBMCs; assay: Inhibition of TNF alpha release from human PBMCs; assay type: cell-based; conditions: PBMC, LPS 1 μg/ml, 18 hours, AlphaLISA
Method: PBMC were isolated from fresh buffy coats by density centrifugation using lymphoprep (Medinor AB, cat no 1019818) tubes. Isolated PBMCs were washed in assay medium (RPMI1640 with 25 mM HEPES, 1% pen/strep, 200 mM L glutamine and 10% Foetal calf serum). Surplus PBMCs were frozen in medium containing extra 10% foetal calf serum and 5% DMSO. On the assay day, fresh cells or cryopreserved cells after thawing were washed in serum free medium (RPMI1640 with 25 mM HEPES, 1% pen/strep, 200 mM L glutamine and 0.5% human serum albumin) and counted, in order to determine the fraction of living cells (generally >95%).
Test compounds were diluted in DMSO over seven orders of magnitude, further diluted in serum-free medium and distributed into wells of 384 well tissue culture plates. LPS was added to a final concentration of 1 μg/ml to the cells. Immediately thereafter titrated test compounds were added and incubated for 18 hours at 37° C.
The level of TNF-a in the culture supernatant was quantitated by AlphaLISA (Perkin Elmer). 2-(3,5-dichloro-4-pyridinyl)-1-(7-methoxyspiro[1,3-benzodioxole-2,1′-cyclopentan]-4-yl)-ethanone (CAS 185406-34-2) at 100×IC50 was used to define the assay window.
Data were processed by sigmoidal curve fitting. EC50 and Emax were determined from the curve fits.

IC50 [1]	SMILES	EC50 [2]
< 100 nM	C[C@H](NC(=O)CO)[C@H](Oc1ccc(C(=O)N[C@H]2CCCN(C(=O)[C@H]3COC(=O)C3)C2)nc1)c1ccc(C2CC2)cc1 [Compound 21, 5-[(1R,2S)-1-(4-cyclopropylphenyl)-2-[(2-hydroxyacetyl)amino]propoxy]-N-[(3S)-1-[(3R)-5-oxotetrahydrofuran-3-carbonyl]-3-piperidyl]pyridine-2-carboxamide]	< 100 nM
100 to 300 nM	Cc1ccc([C@@H](Oc2ccc(C(=O)N[C@@H]3CCN(C(=O)[C@H]4COC(=O)C4)C3)nc2)[C@H](C)NC(=O)C(F)(F)F)cc1 [Compound 65, N-[(3R)-1-[(3R)-5-oxotetrahydrofuran-3-carbonyl]pyrrolidin-3-yl]-5-[(1R,2S)-1-(p-tolyl)-2-[(2,2,2-trifluoroacetyl)amino]propoxy]pyridine-2-carboxamide]	< 100 nM
< 100 nM	C[C@H](NC(=O)C(F)(F)F)[C@H](Oc1ccc(C(=O)N[C@H]2CCCN(C(=O)[C@H]3COC(=O)C3)C2)nc1)c1ccc(Br)cc1 [Compound 67, 5-[(1R,2S)-1-(4-bromophenyl)-2-[(2,2,2-trifluoroacetyl)amino]propoxy]-N-[(3S)-1-[(3R)-5-oxotetrahydrofuran-3-carbonyl]-3-piperidyl]pyridine-2-carboxamide]	< 100 nM
< 100 nM	C[C@H](NC(=O)C(F)(F)F)[C@H](Oc1ccc(C(=O)N[C@H]2CCCN(C(=O)[C@H]3COC(=O)C3)C2)nc1)c1ccc(-c2ccccc2)cc1 [Compound 68, N-[(3S)-1-[(3R)-5-oxotetrahydrofuran-3-carbonyl]-3-piperidyl]-5-[(1R,2S)-1-(4-phenylphenyl)-2-[(2,2,2-trifluoroacetyl)amino]propoxy]pyridine-2-carboxamide]	< 100 nM
< 100 nM	Cc1ccc([C@@H](Oc2ccc(C(=O)N[C@H]3CCCN(C(=O)[C@H]4COC(=O)C4)C3)cc2)[C@H](C)NC(=O)C(F)(F)F)cc1 [Compound 69, N-[(3S)-1-[(3R)-5-oxotetrahydrofuran-3-carbonyl]-3-piperidyl]-4-[(1R,2S)-1-(p-tolyl)-2-[(2,2,2-trifluoroacetyl)amino]propoxy]benzamide]	< 100 nM
< 100 nM	Cc1ccc([C@@H](Oc2ccc(C(=O)N[C@H]3CCCN(C(=O)N[C@@H]4COC(=O)C4)C3)nc2)[C@H](C)NC(=O)C(F)(F)F)cc1 [Compound 71, N-[(3S)-1-[[(3S)-5-oxotetrahydrofuran-3-yl]carbamoyl]-3-piperidyl]-5-[(1R,2S)-1-(p-tolyl)-2-[(2,2,2-trifluoroacetyl)amino]propoxy]pyridine-2-carboxamide]	< 100 nM
< 100 nM	Cc1ccc([C@@H](Oc2ccc(C(=O)N[C@H]3CCCN(C(=O)O[C@H]4CCOC4=O)C3)nc2)[C@H](C)NC(=O)C(F)(F)F)cc1 [Compound 73, [(3S)-2-oxotetrahydrofuran-3-yl] (3S)-3-[[5-[(1R,2S)-1-(p-tolyl)-2-[(2,2,2-trifluoroacetyl)amino]propoxy]pyridine-2-carbonyl]amino]piperidine-1-carboxylate]	–

Second part, the compound before the results:

SMILES	IC50 [1]	EC50 [2]
C[C@H](NC(=O)C1CCCO1)[C@H](Oc1ccc(C(=O)O[C@H]2CCCN(C(=O)C3COC(=O)C3)C2)cc1)c1ccc(C2CC2)cc1 (stereo in doubt) [Compound 79, [(3S)-1-[(3R)-5-oxotetrahydrofuran-3-carbonyl]-3-piperidyl] 4-[(1R,2S)-1-(4-cyclopropylphenyl)-2-[[(2R)-tetrahydrofuran-2-carbonyl]amino]propoxy]benzoate]	< 100 nM	< 100 nM
C[C@H](NC(=O)c1cncs1)[C@H](Oc1ccc(C(=O)O[C@H]2CCCN(C(=O)[C@H]3COC(=O)C3)C2)cc1)c1ccc(C2CC2)cc1 [Compound 27, [(3S)-1-[(3R)-5-oxotetrahydrofuran-3-carbonyl]-3-piperidyl] 4-[(1R,2S)-1-(4-cyclopropylphenyl)-2-(thiazole-5-carbonylamino)propoxy]benzoate]	< 100 nM	< 100 nM
Cc1ccc([C@@H](Oc2ccc(C(=O)N[C@@H]3CCCN(C(=O)[C@@H]4COC(=O)C4)C3)nc2)[C@H](C)NC(=O)C(F)(F)F)cc1 [Compound 60, N-[(3R)-1-[(3S)-5-oxotetrahydrofuran-3-carbonyl]-3-piperidyl]-5-[(1R,2S)-1-(p-tolyl)-2-[(2,2,2-trifluoroacetyl)amino]propoxy]pyridine-2-carboxamide]	–	< 100 nM
Cc1ccc([C@@H](Oc2ccc(C(=O)N[C@@H]3CCCN(C(=O)[C@@H]4CCC(=O)O4)C3)nc2)[C@H](C)NC(=O)C(F)(F)F)cc1 [Compound 61, N-[(3R)-1-[(2S)-5-oxotetrahydrofuran-2-carbonyl]-3-piperidyl]-5-[(1R,2S)-1-(p-tolyl)-2-[(2,2,2-trifluoroacetyl)amino]propoxy]pyridine-2-carboxamide]	–	100 to 300 nM
Cc1ccc([C@@H](Oc2ccc(C(=O)N[C@@H]3CCCN(C(=O)[C@H]4CCC(=O)O4)C3)nc2)[C@H](C)NC(=O)C(F)(F)F)cc1 [Compound 62, N-[(3R)-1-[(2R)-5-oxotetrahydrofuran-2-carbonyl]-3-piperidyl]-5-[(1R,2S)-1-(p-tolyl)-2-[(2,2,2-trifluoroacetyl)amino]propoxy]pyridine-2-carboxamide]	–	< 100 nM
Cc1ccc([C@@H](Oc2ccc(C(=O)N[C@H]3CCCN(C(=O)[C@@H]4COC(=O)C4)C3)nc2)[C@H](C)NC(=O)C(F)(F)F)cc1 [Compound 63, N-[(3S)-1-[(3S)-5-oxotetrahydrofuran-3-carbonyl]-3-piperidyl]-5-[(1R,2S)-1-(p-tolyl)-2-[(2,2,2-trifluoroacetyl)amino]propoxy]pyridine-2-carboxamide]	–	< 100 nM
Cc1ccc([C@@H](Oc2ccc(C(=O)N[C@H]3CCCN(C(=O)[C@@H]4CCC(=O)O4)C3)nc2)[C@H](C)NC(=O)C(F)(F)F)cc1 [Compound 64, N-[(3S)-1-[(2S)-5-oxotetrahydrofuran-2-carbonyl]-3-piperidyl]-5-[(1R,2S)-1-(p-tolyl)-2-[(2,2,2-trifluoroacetyl)amino]propoxy]pyridine-2-carboxamide]	–	< 100 nM
Cc1ccc([C@@H](Oc2ccc(C(=O)O[C@H]3CCCN(C(=O)[C@H]4COC(=O)C4)C3)cc2)[C@H](C)NC(=O)C(F)(F)F)cc1 [Compound 70, [(3S)-1-[(3R)-5-oxotetrahydrofuran-3-carbonyl]-3-piperidyl] 4-[(1R,2S)-1-(p-tolyl)-2-[(2,2,2-trifluoroacetyl)amino]propoxy]benzoate]	–	< 100 nM
Cc1ccc([C@H](Oc2ccc(C(=O)N[C@H]3CCCN(C(=O)[C@@H]4COC(=O)C4)C3)nc2)[C@H](C)NC(=O)C(F)(F)F)cc1 [Compound 80, N-[(3S)-1-[(3S)-5-oxotetrahydrofuran-3-carbonyl]-3-piperidyl]-5-[(1S,2S)-1-(p-tolyl)-2-[(2,2,2-trifluoroacetyl)amino]propoxy]pyridine-2-carboxamide]	–	< 100 nM
Cc1ccc([C@H](Oc2ccc(C(=O)N[C@H]3CCCN(C(=O)[C@H]4COC(=O)C4)C3)nc2)[C@H](C)NC(=O)C(F)(F)F)cc1 [Compound 81, N-[(3S)-1-[(3R)-5-oxotetrahydrofuran-3-carbonyl]-3-piperidyl]-5-[(1S,2S)-1-(p-tolyl)-2-[(2,2,2-trifluoroacetyl)amino]propoxy]pyridine-2-carboxamide]	–	< 100 nM
C[C@@H]1C[C@H]2[C@@H]3CCC4=CC(=O)C=C[C@]4(C)[C@@]3(F)[C@@H](O)C[C@]2(C)[C@@]1(O)C(=O)CO [Dexamethasone, reference compound]	–	< 100 nM
